The source of these data is the Kinase Knowledgebase extract (Sharma et al. 2016).

This experiment has as its target CDK2 (human) (UniProt P24941). The experiment is described as follows: Enzyme Assay.

For the compound `Cc1c(N[C@H]2CC[C@H](N)CC2)nc2ccnn2c1Nc1cccc(OC2CCCC2)c1`, the IC50 was under 100 µM.

For the compound `Cc1c(N[C@H]2CC[C@H](N)CC2)nc2ccnn2c1Nc1ccc2ncsc2c1`, the half-maximal inhibitory concentration (IC50) is under 100 µM. As for `Cc1c(N[C@H]2CC[C@H](N)CC2)nc2ccnn2c1Nc1ccc(-c2ccsc2)cc1`, the IC50 is under 100 µM. The value for `COc1ccc(Nc2c(CCCO)c(N[C@H]3CC[C@H](N)CC3)nc3ccnn23)cc1` was under 100 µM. Next, `CCOc1ccc(Nc2c(C)c(N[C@H]3CC[C@H](N)CC3)nc3c(C(=O)Nc4ncc[nH]4)cnn23)cc1`: under 100 µM; `CCOc1ccc(Nc2c(C)c(N[C@H]3CC[C@H](N)CC3)nc3c(C(C)C)cnn23)cc1`: under 100 µM. As for `Cc1c(N[C@H]2CC[C@H](N)CC2)nc2ccnn2c1Nc1ccc(-c2ccccc2O)cc1`, the IC50 is under 100 µM. Next, `COc1ccccc1-c1ccc(Nc2c(C)c(N[C@H]3CC[C@H](N)CC3)nc3ccnn23)cc1`: under 100 µM; `CCc1c(N[C@H]2CC[C@H](N)CC2)nc2ccnn2c1Nc1ccccc1OC`: under 100 µM; `Cc1c(N[C@H]2CC[C@H](N)CC2)nc2ccnn2c1Nc1ccc(OC(F)(F)F)c(Cl)c1`: under 100 µM.

As to `CCOC(=O)c1cccc(Nc2c(C)c(N[C@H]3CC[C@H](N)CC3)nc3ccnn23)c1`, the IC50 was under 100 µM. Next, `Cc1c(N[C@H]2CC[C@H](N)CC2)nc2ccnn2c1Nc1ccc(-c2cccc(N(C)C)c2)cc1`: under 100 µM. Next, `Cc1c(N[C@H]2CC[C@H](N)CC2)nc2ccnn2c1Nc1ccc(-c2ccc(C(F)(F)F)cc2)cc1`: under 100 µM; `Cc1c(N[C@H]2CC[C@H](N)CC2)nc2ccnn2c1Nc1cccc(Cl)c1`: under 100 µM; `CCc1c(N[C@H]2CC[C@H](N)CC2)nc2ccnn2c1Nc1cccc(Oc2ccccc2)c1`: under 100 µM.

For `Cc1c(NC2CCCNC2)nc2ccnn2c1Nc1ccc(-c2cccc(N)c2)cc1` (stereo unspecified), the IC50 was under 100 µM. Next, `CCc1c(N[C@H]2CC[C@H](N)CC2)nc2ccnn2c1Nc1ccc(I)cc1`: under 100 µM. In turn, `Cc1c(N[C@H]2CC[C@H](N)CC2)nc2ccnn2c1Nc1ccc(OCc2ccccc2)cc1` yielded an IC50 of under 100 µM. For `CCc1c(N[C@H]2CC[C@H](N)CC2)nc2ccnn2c1NCc1ccccc1Cl`, the IC50 is under 100 µM. The value for `Cc1c(N[C@H]2CC[C@H](N)CC2)nc2ccnn2c1Nc1ccc2c(c1)OCCO2` was under 100 µM; that for `CCc1c(N[C@H]2CC[C@H](N)CC2)nc2ccnn2c1Nc1ccc(N2CCCC2=O)cc1` was under 100 µM; that for `Cc1c(N[C@H]2CC[C@H](N)CC2)nc2ccnn2c1Nc1cccc(OCc2cccnc2)c1` was under 100 µM. Next, `CCOc1ccc(Nc2c(C)c(NC(C)(C)CO)nc3ccnn23)cc1`: under 100 µM. In turn, `C=CCNc1c(CC)c(N[C@H]2CC[C@H](N)CC2)nc2ccnn12` gave an IC50 of under 100 µM. Next, `Cc1c(N[C@H]2CC[C@H](N)CC2)nc2ccnn2c1Nc1cccc(O)c1`: under 100 µM; `Cc1ccc(COc2cccc(Nc3c(C)c(N[C@H]4CC[C@H](N)CC4)nc4ccnn34)c2)cc1`: under 100 µM; `Cc1nc2cc(Nc3c(C)c(N[C@H]4CC[C@H](N)CC4)nc4ccnn34)ccc2s1`: under 100 µM. The value for `Cc1c(N[C@H]2CC[C@H](N)CC2)nc2ccnn2c1Nc1ccc(OCC2CCCCC2)cc1` was under 100 µM; that for `CCc1c(N[C@H]2CC[C@H](N)CC2)nc2ccnn2c1Nc1ccc(OC(F)(F)C(F)F)cc1` was under 100 µM. Next, `Cc1c(N[C@H]2CC[C@H](N)CC2)nc2ccnn2c1Nc1ccc(OCC2CCCCN2)cc1` (stereo partly specified): under 100 µM; `Cc1c(N[C@H]2CC[C@H](N)CC2)nc2ccnn2c1Nc1ccc(-c2cccc(O)c2)cc1`: under 100 µM.

Regarding `CCOc1ccc(Nc2c(C)c(N[C@H]3CC[C@H](N)CC3)nc3c(C4CCCCC4)cnn23)cc1`, the IC50 is under 100 µM. Next, `Cc1c(N[C@H]2CC[C@H](N)CC2)nc2ccnn2c1Nc1ccc(OCc2ccccn2)cc1`: under 100 µM. Compound `CCc1c(N[C@H]2CC[C@H](N)CC2)nc2ccnn2c1Nc1ccc(C(N)=O)cc1` showed an IC50 of under 100 µM.

In the case of `Cc1c(N[C@H]2CC[C@H](N)CC2)nc2ccnn2c1Nc1ccc(N2CCCCC2)cc1`, the 50% inhibitory concentration (IC50) is under 100 µM. Next, `CCOc1ccc(Nc2c(C)c(NC3(CO)CCCC3)nc3ccnn23)cc1`: under 100 µM. Next, `Cc1c(N[C@H]2CC[C@H](N)CC2)nc2ccnn2c1Nc1ccc(-c2ccsc2C=O)cc1`: under 100 µM. With `CCc1c(N[C@H]2CC[C@H](N)CC2)nc2ccnn2c1Nc1ccc(F)c(Cl)c1`, the IC50 is under 100 µM. In the case of `Cc1c(N[C@H]2CC[C@H](N)CC2)nc2ccnn2c1Nc1ccc(-c2ccoc2)cc1`, the IC50 was under 100 µM. The value for `Cc1c(N[C@H]2CC[C@H](N)CC2)nc2ccnn2c1Nc1ccc(C(=O)NCc2ccco2)cc1` was under 100 µM; that for `CCOc1ccc(Nc2c(C)c(NC(CO)C(C)C)nc3ccnn23)cc1` (stereo unspecified) was under 100 µM; that for `Cc1c(N[C@H]2CC[C@H](N)CC2)nc2ccnn2c1Nc1ccc(CO)cc1` was under 100 µM. The value for `CSc1cccc(Nc2c(C)c(N[C@H]3CC[C@H](N)CC3)nc3ccnn23)c1` was under 100 µM; that for `CCOc1ccc(Nc2c(C)c(NC3CCCNC3)nc3c(C#N)cnn23)cc1` (stereo unspecified) was under 100 µM.

Take `Cc1c(N[C@H]2CC[C@H](N)CC2)nc2ccnn2c1Nc1ccc(-c2cn[nH]c2)cc1`: the IC50 was under 100 µM. `CCOc1ccc(Nc2c(CC)c(N[C@H]3CC[C@H](N)CC3)nc3ccnn23)cc1` came in with an IC50 of under 100 µM. Next, `CCOc1ccc(Nc2c(C)c(N[C@H]3CC[C@H](N)CC3)nc3c(CO)cnn23)cc1`: under 100 µM; `CCc1c(NC2CCCNC2)nc2ccnn2c1Nc1ccc(Br)cc1` (stereo unspecified): under 100 µM. The value for `Cc1c(N[C@H]2CC[C@H](N)CC2)nc2ccnn2c1Nc1ccc(-c2ccccc2Cl)cc1` was under 100 µM; that for `CCCNc1c(C)c(N[C@H]2CC[C@H](N)CC2)nc2ccnn12` was under 100 µM; that for `CCc1c(N[C@H]2CC[C@H](N)CC2)nc2ccnn2c1Nc1ccc(OC)c(C(F)(F)F)c1` was under 100 µM.

`Cc1c(N[C@H]2CC[C@H](N)CC2)nc2ccnn2c1Nc1ccc(-c2ccc(Cl)cc2)cc1` came in with an IC50 of under 100 µM. The value for `CC1=[SH]c2cc(Nc3c(C)c(N[C@H]4CC[C@H](N)CC4)nc4ccnn34)ccc2N1` was under 100 µM. With `CCOC(=O)c1ccc(Nc2c(CC)c(N[C@H]3CC[C@H](N)CC3)nc3ccnn23)cc1Cl`, the IC50 is under 100 µM. The value for `Cc1c(N[C@H]2CC[C@H](N)CC2)nc2ccnn2c1Nc1ccc(O)cc1` was under 100 µM.

`Cc1c(N[C@H]2CC[C@H](N)CC2)nc2ccnn2c1Nc1ccc(-c2cccc(CO)c2)cc1` displayed an IC50 of under 100 µM. The value for `Cc1c(N[C@H]2CC[C@H](N)CC2)nc2ccnn2c1Nc1cccc(OCc2cccc(Cl)c2)c1` was under 100 µM; that for `Cc1c(N[C@H]2CC[C@H](N)CC2)nc2ccnn2c1Nc1ccccc1` was under 100 µM. For the compound `CCCCOc1ccc(Nc2c(CCCO)c(N[C@H]3CC[C@H](N)CC3)nc3ccnn23)cc1`, the IC50 was under 100 µM. The value for `Cc1c(N[C@H]2CC[C@H](N)CC2)nc2ccnn2c1Nc1ccc(OC(F)(F)F)cc1` was under 100 µM. As for `CCCCC(=O)c1cnn2c(Nc3ccc(OCC)cc3)c(C)c(N[C@H]3CC[C@H](N)CC3)nc12`, the IC50 was under 100 µM. For `Cc1c(N[C@H]2CC[C@H](N)CC2)nc2ccnn2c1Nc1cccc(OCc2ccccc2Cl)c1`, the IC50 is under 100 µM. On to `CCOc1ccc(Nc2c(C)c(N[C@H]3CC[C@H](N)CC3)nc3c(C(=O)Nc4ccccn4)cnn23)cc1`, for which the IC50 is under 100 µM.

Take `CSc1cnn2c(Nc3ccc(F)c(Cl)c3)cc(N[C@H]3CC[C@H](N)CC3)nc12`: the IC50 was under 100 µM.

For the compound `N[C@H]1CC[C@H](Nc2cc(Nc3ccccc3Cl)n3ncc(I)c3n2)CC1`, the IC50 is under 100 µM. Next, `Cc1c(N[C@H]2CC[C@H](N)CC2)nc2c(F)cnn2c1Nc1ccc(I)cc1`: under 100 µM; `Cc1c(N[C@H]2CC[C@H](N)CC2)nc2ccnn2c1Nc1ccc(-c2cccc(Cl)c2)cc1`: under 100 µM; `Cc1c(N[C@H]2CC[C@H](N)CC2)nc2ccnn2c1Nc1ccc(OCCc2ccncc2)cc1`: under 100 µM. Next, `N[C@H]1CC[C@H](Nc2cc(Nc3ccc(F)c(Cl)c3)n3ncc(I)c3n2)CC1`: under 100 µM; `CCc1c(N[C@H]2CC[C@H](N)CC2)nc2ccnn2c1Nc1ccc(N2CCCCC2)cc1`: under 100 µM; `Cc1c(NC2CCCNC2)nc2ccnn2c1Nc1ccc(I)cc1` (stereo unspecified): under 100 µM. Next, `N[C@H]1CC[C@H](Nc2cc(Nc3ccc(F)c(Cl)c3)n3ncc(Cl)c3n2)CC1`: under 100 µM; `CCOc1ccc(Nc2c(C)c(N[C@H]3CC[C@H](N)CC3)nc3ccnn23)cc1`: under 100 µM.

For the compound `Cc1c(N[C@H]2CC[C@H](N)CC2)nc2ccnn2c1Nc1cccc(OCc2cccc(N)c2)c1`, the IC50 was under 100 µM. The value for `CCc1c(N[C@H]2CC[C@H](N)CC2)nc2ccnn2c1Nc1ccccc1` was under 100 µM; that for `Cc1c(N[C@H]2CC[C@H](N)CC2)nc2ccnn2c1Nc1ccc(C(F)(F)F)cc1` was under 100 µM; that for `CCc1c(NC2CCCNC2)nc2ccnn2c1Nc1ccc(OC)c(Cl)c1` (stereo unspecified) was under 100 µM. For the compound `Cc1ccc(-c2ccc(Nc3c(C)c(N[C@H]4CC[C@H](N)CC4)nc4ccnn34)cc2)cc1`, the IC50 was under 100 µM. Next, `CCc1c(N[C@H]2CC[C@H](N)CC2)nc2ccnn2c1Nc1ccc(OCc2ccccc2)cc1`: under 100 µM. The value for `Cc1c(N[C@H]2CC[C@H](N)CC2)nc2ccnn2c1Nc1ccc(-n2ccnc2)cc1` was under 100 µM. As for `COCc1cccc(-c2ccc(Nc3c(C)c(N[C@H]4CC[C@H](N)CC4)nc4ccnn34)cc2)c1`, the IC50 is under 100 µM. The value for `Cc1cscc1-c1ccc(Nc2c(C)c(N[C@H]3CC[C@H](N)CC3)nc3ccnn23)cc1` was under 100 µM; that for `Cc1c(N[C@H]2CC[C@H](N)CC2)nc2ccnn2c1Nc1ccc(OCC2CCCN(C)C2)cc1` (stereo partly specified) was under 100 µM; that for `Cc1c(NC2CCCNC2)nc2ccnn2c1Nc1ccc(F)c(Cl)c1` (stereo unspecified) was under 100 µM. The value for `Cc1c(N[C@H]2CC[C@H](N)CC2)nc2ccnn2c1Nc1ccc(-c2cccc(F)c2)cc1` was under 100 µM; that for `Cc1c(N[C@H]2CC[C@H](N)CC2)nc2ccnn2c1Nc1cccc(OCCn2ccnc2)c1` was under 100 µM.
